Measured values from patent US12370352B2, “Nasal and ophthalmic delivery of aqueous corticosteroid solutions” (CyDex Pharmaceuticals, Inc., priority 2007, dated 2025).
Counter-ions that a name gives are not always drawn.

Key:
[1] = Equilibrium binding constants (K) of corticosteroids with SBE6.1-γ-CD (Example 46); details: (SBE)6.1 γ (0.04 M); in M-1 (unit assumed)
Description: (§1) The binding of a corticosteroid to the SAE-CD can be characterized by its equilibrium binding constant. The higher the binding constant, the more tightly the corticosteroid is bound to the SAE-CD.

[2] = Equilibrium binding constants (K) of corticosteroids with CAPTISOL (Example 46); details: CAPTISOL (0.04 M); in M-1 (unit assumed)
Description: as §1

[3] = format: binding
Description: (§2) The equilibrium binding constant of the corticosteroid can change when a second active agent is present in a composition of the invention. Since azelastine hydrochloride (AZ-HCl) has an approximately 10-fold higher binding constant for SBE-β-CD than does budesonide (BUD), the amount of SBE-β-CD present in an aqueous composition of the three needs to be sufficient to solubilize both drugs. Example 19 details a procedure for determination of the phase solubility of budesonide in the presence of varying amounts of azelastine. The results are depicted in FIGS. 11A (for SBE-β-CD) and 11B (for SBE-β-CD and SBE-γ-CD). […] FIG. 11B is a chart of the phase solubility of BUD as a function of SBE-β-CD or SBE-γ-CD concentration in solution using various different concentrations of AZ-HCl (1.00-2.75 mg.mL). […] Thus, increasing the amount of AZ-HCl in the solution decreases the overall solubility of BUD. […] Therefore, it is advantageous to prepare solution compositions of these combinations using SBE-γ-CD due to the efficiency of interaction so as to require less of one SAExCD versus another different SAEyCD to solubilize similar amounts of actives in the presence of each other.

[4] = Phase solubility of budesonide in the presence of SAE-CD and azelastine hydrochloride (Example 19); format: physicochemical; details: SBE-β-CD or SBE-γ-CD solutions, pH 4.5 citrate buffer
Description: The equilibrium binding constant of the corticosteroid can change when a second active agent is present in a composition of the invention. Since azelastine hydrochloride (AZ-HCl) has an approximately 10-fold higher binding constant for SBE-β-CD than does budesonide (BUD), the amount of SBE-β-CD present in an aqueous composition of the three needs to be sufficient to solubilize both drugs. Example 19 details a procedure for determination of the phase solubility of budesonide in the presence of varying amounts of azelastine. The results are depicted in FIGS. 11A (for SBE-β-CD) and 11B (for SBE-β-CD and SBE-γ-CD). […] FIG. 11B is a chart of the phase solubility of BUD as a function of SBE-β-CD or SBE-γ-CD concentration in solution using various different concentrations of AZ-HCl (1.00-2.75 mg.mL). […] Thus, increasing the amount of AZ-HCl in the solution decreases the overall solubility of BUD. […]
A stock solution of citrate buffer (3 mM, pH 4.5) was prepared. […] Any budesonide remaining suspended in the solutions was removed by filtration and the concentration of budesonide in each solution measured by HPLC as described herein. […]

[5] = format: binding; remark: listed apart in the source
Procedure: A composition of the invention can comprise SAE-CD, corticosteroid, aqueous liquid carrier, and an antihistamine. In some embodiments, the composition contains SAE-CD, budesonide, water (or aqueous buffer) and azelastine. Example 14 details the preparation of such a composition. Other solutions of azelastine in buffer with varying amounts of SAE-CD, in the absence of budesonide, were prepared and scanned by UV Spectrometer. The change in absorption as a function of SAE-CD concentration was plotted and used to determine the equilibrium binding constant of azelastine with SAE-CD, according to the Benesi-Hildebrand equation. […] The binding constant for budesonide under similar conditions was determined to be about 1000; therefore, azelastine will compete with budesonide, or another corticosteroid, for binding to SAE-CD. Accordingly, the amount of SAE-CD present can be increased to permit complete dissolution of both drugs.
as §2

[6] = Stability of budesonide R- and S-isomers with and without SBE7-β-CD (Example 13); format: physicochemical; details: pH 4 and 6, all temperatures (60° C., 80° C.)
Procedure: SAE-CD is also capable of stabilizing the isomers of budesonide to different extents. […] At a given temperature the ratio of rate constants with/without SBE7-β-CD was less at pH 6 than at pH 4. Although SBE7-β-CD stabilized both isomers, the S-isomer appears to be stabilized to an even greater extent than the R. At all temperatures and pHs tested, the ratio of rate constants with/without SBE7-β-CD was lower for the S isomer. The degree of stabilization affected by SBE7-β-CD at 60° C. is greater than at 80° C. An even greater degree of stabilization would be expected at 40° C. and/or room temperature (20-30° C.). […] The loss of budesonide was first order and […]. […] To achieve a concentration of budesonide in the buffers without SBE7-β-CD sufficient for accurate measurement, the budesonide was dissolved first in 100% ethyl alcohol. […] All solution preps and procedures involving budesonide were done in a darkened room under red light. […] The final budesonide concentration was about 50 μg/mL. […] Each solution was aliquoted into individual amber vials. They were then placed in ovens at 60° C. and 80° C. Sample vials were removed from the ovens and analyzed by HPLC at 0, 96, 164, and 288 hours. The HPLC assay conditions are summarized below. […]

[7] = Fluticasone propionate concentration in SBE-Gamma ophthalmic solution, excess drug (Example 36 Method A); format: physicochemical; details: 10% w/v SBE-Gamma (D.S.=6.1), 0.01% TWEEN
Procedure: A citrate buffer solution at a pH of 4.5 was prepared by mixing various portions of 0.003M citric acid with 0.003M of trisodium citrate. A phosphate buffer solution at a pH of 6.0 was prepared by mixing various portions of 0.003M monobasic sodium phosphate with 0.003M of dibasic sodium phosphate. […] An excess of fluticasone propionate was added to the vials and equilibrated on a rocker for three days. The samples were then filtered using a PVDF 0.22 μm syringe filter. Aliquots of the solutions were placed into clear glass 2 mL serum vials with aluminum crimp caps and Daikyo Flurotec septums. […] The concentration of the pH 6.0 solution was 238 μg/mL.

[8] = Phase solubility of corticosteroids with cyclodextrins (Example 23)
[9] = Aqueous budesonide/olopatadine/CAPTISOL solution (Example 47); format: physicochemical
Procedure: An aqueous budesonide/olopatadine solution was prepared. […] Three mM citrate buffer was prepared at pH 4.5. […] Those citrate solutions were mixed to adjust the pH to 4.5. […] The solutions were transferred into 250 mL amber beakers with a magnetic stir disk. The solutions were mixed with a magnetic stir disk at 900 rpm at a temperature of 35° C. Approximately 34 milligrams of budesonide was suspended in each CAPTISOL solution. The samples were mixed with a magnetic stir disk at 900 rpm and 35° C. After 24 hours, the samples were filtered through 0.22 μm PVDF filter. The budesonide in the aliquots was assayed by an HPLC assay method and the concentrations were 340 μg/mL. […] Approximately 27 milligrams of olopatadine HCl was weighed into each of three 2 drams amber vials. The olopatadine HCl was suspended to 4 mL of budesonide/CAPTISOL solutions prepared in Part A. The samples were mixed on a roller mixer at RT. After 24 hours, the samples were filtered through 0.22 μm PVDF filter. The olopatadine and budesonide in the aliquots was assayed by HPLC assay methods, respectively. All olopatadine HCl concentrations were >6.6 mg/mL and all budesonide concentrations were >320 μg/mL. […] Approximately 27 milligrams of olopatadine HCl were weighed into each of three 2 drams amber vials. The olopatadine HCl was suspended to 4 mL of budesonide/CAPTISOL solutions prepared in Part A. The samples were mixed on a roller mixer at RT. After 1 hour, the pH of each sample was adjusted to 4.5 with 1N NaOH. Again, the samples were mixed on a roller mixer at RT. […] All samples were filtered through 0.22 μm PVDF filter. The olopatadine and budesonide in the aliquots were assayed by HPLC assay methods, respectively.

SMILES	Binding Constant- K [1]	Binding Constant- K [2]	other results
CCC(=O)OCC(=O)[C@@]1(OC(=O)CC)[C@@H](C)C[C@H]2[C@@H]3CCC4=CC(=O)C=C[C@]4(C)[C@@]3(Cl)[C@@H](O)C[C@@]21C [Beclomethasone dipropionate, beclomethasone dipropionate]	2862	684	
CCCC1O[C@@H]2C[C@H]3[C@@H]4CCC5=CC(=O)C=C[C@]5(C)[C@H]4[C@@H](O)C[C@]3(C)[C@]2(C(=O)CO)O1 (stereo partly drawn) [Budesonide, (R,S)-11β, 16α, 17, 21-tetrahydroxypregna-1,4-diene-3, 20-dione cyclic 16, 17-acetal with butyraldehyde]			Equilibrium complex stability constant with SBE-γ-CD [3]: 2000 M⁻¹; Overall solubility of BUD with increasing amount of AZ-HCl [4]: decreases; Equilibrium complex stability constant with SBE-β-CD [5]: 1000 M⁻¹; With/without CAPTISOL ratio of degradation rate constants [6]: less than 1
CC1(C)O[C@@H]2C[C@H]3[C@@H]4C[C@H](F)C5=CC(=O)C=C[C@]5(C)[C@H]4[C@@H](O)C[C@]3(C)[C@]2(C(=O)CO)O1 [Flunisolide]	1104	590	
CCC(=O)O[C@]1(C(=O)SCF)[C@H](C)C[C@H]2[C@@H]3C[C@H](F)C4=CC(=O)C=C[C@]4(C)[C@@]3(F)[C@@H](O)C[C@@]21C [Fluticasone propionate, fluticasone propionate]	3338	322	Concentration in solution (excess drug, filtered) ([7]; citrate buffer pH 4.5): 232 µg/mL; Concentration in solution (excess drug, filtered) ([7]; phosphate buffer pH 6.0): 238 µg/mL
CC1(C)O[C@@H]2C[C@H]3[C@@H]4CCC5=CC(=O)C=C[C@]5(C)[C@@]4(F)[C@@H](O)C[C@]3(C)[C@]2(C(=O)CO)O1 [Triamcinolone acetonide, triamcinolone acetonide]			Approximate Molar Ratio at Saturated Solubility of Corticosteroid (SAE-CD:corticosteroid) ([8]; SAE-β-CD): 8.8; Approximate Molar Ratio at Saturated Solubility of Corticosteroid (SAE-CD:corticosteroid) ([8]; SAE-γ-CD): 3.8
CN1CCCC(n2nc(Cc3ccc(Cl)cc3)c3ccccc3c2=O)CC1 (stereo not drawn) [azelastine HCL, azelastine hydrochloride]			Binding constant for SBE-β-CD relative to budesonide ([5]; AZ-HCl versus BUD): approximately 10 fold
CN(C)CC/C=C1/c2ccccc2COc2ccc(CC(=O)O)cc21 [olopatadine HCl]			Olopatadine HCl concentration ([9]; Part B, all CAPTISOL concentrations (5, 7.5, 10% w/v), pH ~3.8): > 6.6 mg/mL; Olopatadine HCl concentration ([9]; Part C, pH adjusted to 4.5, CAPTISOL 5% w/v (precipitation)): 6.5 mg/mL; Olopatadine HCl concentration ([9]; Part C, pH adjusted to 4.5, CAPTISOL 7.5 and 10% w/v): > 6.6 mg/mL

More lines, main results first:

Binding Constant- K [1]	Binding Constant- K [2]	SMILES	other results
1430	1932	C[C@]12CCC(=O)C=C1CC[C@@H]1[C@@H]2[C@@H](O)C[C@@]2(C)[C@H]1CC[C@]2(O)C(=O)CO [Hydrocortisone]	
551	201	C[C@@H]1C[C@H]2[C@@H]3CCC4=CC(=O)C=C[C@]4(C)[C@@]3(Cl)[C@@H](O)C[C@]2(C)[C@@]1(OC(=O)c1ccco1)C(=O)CCl [Mometasone Fuorate]	
1653	1496	C[C@]12C=CC(=O)C=C1CC[C@@H]1[C@@H]2[C@@H](O)C[C@@]2(C)[C@H]1CC[C@]2(O)C(=O)CO [Prednisolone]	
